Where a name gives a salt, the structure may show the parent alone.
Columns and labels:
Human GLP-1R [1] = biological target: T1, Human GLP-1R (Homo sapiens, UniProt P43220); assay: cell-based or functional assay
[2] = biological target: T2, human GIP receptor (human) (UniProt P48546); assay: cell-based or functional assay
T2 sequence (looked up): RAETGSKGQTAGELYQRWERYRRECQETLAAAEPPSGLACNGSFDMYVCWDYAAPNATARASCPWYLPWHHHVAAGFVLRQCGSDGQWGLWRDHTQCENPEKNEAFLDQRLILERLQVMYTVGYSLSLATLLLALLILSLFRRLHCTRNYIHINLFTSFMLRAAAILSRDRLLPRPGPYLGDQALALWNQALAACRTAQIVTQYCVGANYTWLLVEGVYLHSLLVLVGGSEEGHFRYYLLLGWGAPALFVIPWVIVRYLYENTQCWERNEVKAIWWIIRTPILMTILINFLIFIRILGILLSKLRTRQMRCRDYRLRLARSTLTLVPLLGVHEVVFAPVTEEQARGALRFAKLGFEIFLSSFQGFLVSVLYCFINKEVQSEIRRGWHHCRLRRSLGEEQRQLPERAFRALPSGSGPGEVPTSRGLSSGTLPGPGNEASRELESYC

4 h fasted mice = assay: Blood glucose after single administration of peptides; assay type: in vivo; settings: 4 h fasted mice, single s.c. 10 nmol/Kg, mean ± SEM
Description: (§1) Differences were considered statistically significant at p<0.05. Data analysis was carried out with GraphPad software (GraphPad Prism).

Human GLP-1R [3] = biological target: T1, Human GLP-1R; assay: GPCR cell-based cAMP assay, human GLP-1 receptor; parameters: expressed in transfected cells; host or cells: CHO-K1, stably transfected; settings: stably transfected CHO-Kl cells, 0.1% casein
Description: (§2) Experimental protocol: Cells were seeded in a total volume of 20 μL into white walled, 384-well microplates and incubated at 37° C. overnight prior to testing. Prior to testing cell plating media was exchanged with 10 μL of Assay buffer (HBSS+10 mM HEPES). All compounds were run in assay buffer containing 0.1% casein. Briefly, intermediate dilution of sample stocks was performed to generate 4× sample in assay buffer. 5 μL of 4× sample was added to cells and incubated at 37° C. for 30 minutes. Final assay vehicle concentration was 1%. […] Microplates were read following signal generation with PerkinElmer Envision instrument for chemiluminescent signal detection.
(§3) The results are expressed as a percent efficacy relative to the maximum response of the control ligand.
Target sequence in this assay (P43220 24-463): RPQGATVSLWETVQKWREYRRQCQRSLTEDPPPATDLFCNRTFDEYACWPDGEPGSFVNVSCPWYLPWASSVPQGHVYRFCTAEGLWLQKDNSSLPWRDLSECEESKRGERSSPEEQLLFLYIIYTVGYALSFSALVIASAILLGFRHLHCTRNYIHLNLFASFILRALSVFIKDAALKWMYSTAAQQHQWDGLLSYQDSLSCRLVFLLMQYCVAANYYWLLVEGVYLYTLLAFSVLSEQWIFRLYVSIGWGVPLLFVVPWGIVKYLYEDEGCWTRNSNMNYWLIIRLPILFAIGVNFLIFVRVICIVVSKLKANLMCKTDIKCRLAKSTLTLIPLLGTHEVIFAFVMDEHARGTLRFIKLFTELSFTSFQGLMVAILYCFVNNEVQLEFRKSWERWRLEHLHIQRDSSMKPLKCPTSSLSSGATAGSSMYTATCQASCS

Human Calc/RAMP3R (AMY3) = biological target: T3, Human Calc/RAMP3R (AMY3) (Homo sapiens, UniProt O60896+P30988); assay: GPCR cell-based cAMP assay, human AMY3 receptor; settings: stably transfected CHO-Kl cells, 0.1% casein
T3 construct: expressed in transfected cells; host or cells: CHO-K1, stably transfected
T3 sequence (P30988 25-474): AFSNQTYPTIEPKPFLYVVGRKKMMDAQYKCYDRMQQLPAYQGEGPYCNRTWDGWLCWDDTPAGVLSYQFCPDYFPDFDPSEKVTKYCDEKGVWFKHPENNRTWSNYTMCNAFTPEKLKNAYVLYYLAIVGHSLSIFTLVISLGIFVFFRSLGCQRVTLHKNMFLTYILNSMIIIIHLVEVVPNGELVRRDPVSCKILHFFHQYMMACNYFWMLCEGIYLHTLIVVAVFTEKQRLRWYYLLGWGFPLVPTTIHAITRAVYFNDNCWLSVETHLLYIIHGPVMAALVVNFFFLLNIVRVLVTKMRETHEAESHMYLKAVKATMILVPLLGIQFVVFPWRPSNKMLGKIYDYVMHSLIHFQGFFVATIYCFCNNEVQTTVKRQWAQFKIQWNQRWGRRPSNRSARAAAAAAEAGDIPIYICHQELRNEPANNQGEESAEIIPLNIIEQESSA
T3 sequence (O60896 24-148 partner): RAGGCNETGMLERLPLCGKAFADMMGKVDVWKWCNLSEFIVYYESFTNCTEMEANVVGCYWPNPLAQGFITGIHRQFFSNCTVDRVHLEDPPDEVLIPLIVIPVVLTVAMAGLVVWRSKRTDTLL
Description: as §2, §3

lean rats = assay: Acute food intake and body weight reduction in lean rats; assay type: in vivo, Sprague Dawley male rats; settings: single s.c. 10 nmol/Kg, mean ± SEM
Description: Food intake was measured at different time-intervals post-injection up to 72 h using a precision balance. Cumulative food intake was calculated for the indicated time-periods. Body weight was measured at the indicated time-periods. Mean of cumulative food intake in each dose group was compared to vehicle and reported as a percentage of mean reduction relative to vehicle.
All data shown are the mean±standard error (SEM).

Human GIPR = biological target: T4, Human GIPR (Homo sapiens, UniProt P48546); assay: GPCR cell-based cAMP assay, human GIP receptor; settings: stably transfected CHO-Kl cells, 0.1% casein
T4 construct: expressed in transfected cells; host or cells: CHO-K1, stably transfected
T4 sequence (P48546 22-466): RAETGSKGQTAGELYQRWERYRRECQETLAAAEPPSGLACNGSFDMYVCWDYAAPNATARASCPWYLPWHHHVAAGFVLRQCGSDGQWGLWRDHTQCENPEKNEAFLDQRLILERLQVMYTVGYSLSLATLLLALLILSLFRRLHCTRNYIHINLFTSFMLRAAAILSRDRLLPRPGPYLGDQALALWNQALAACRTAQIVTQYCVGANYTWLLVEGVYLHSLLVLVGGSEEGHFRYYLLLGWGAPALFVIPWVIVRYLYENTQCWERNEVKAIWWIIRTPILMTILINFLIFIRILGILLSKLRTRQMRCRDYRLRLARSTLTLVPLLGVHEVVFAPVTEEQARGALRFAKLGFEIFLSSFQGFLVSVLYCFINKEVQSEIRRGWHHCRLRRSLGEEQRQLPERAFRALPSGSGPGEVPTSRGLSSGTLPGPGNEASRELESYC
Description: as §2, §3

DIO mice = assay: Food intake and body weight after repeated dosing in DIO mice; assay type: in vivo, C57BL/6j male mice; settings: daily injection 10 nmol/kg for 20 days
Description: as §1

Human CalcitoninR = biological target: T5, Human CalcitoninR (Homo sapiens, UniProt P30988); assay: GPCR cell-based cAMP assay, human calcitonin receptor; settings: stably transfected CHO-Kl cells, 0.1% casein
T5 construct: expressed in transfected cells; host or cells: CHO-K1, stably transfected
T5 sequence (P30988 25-474): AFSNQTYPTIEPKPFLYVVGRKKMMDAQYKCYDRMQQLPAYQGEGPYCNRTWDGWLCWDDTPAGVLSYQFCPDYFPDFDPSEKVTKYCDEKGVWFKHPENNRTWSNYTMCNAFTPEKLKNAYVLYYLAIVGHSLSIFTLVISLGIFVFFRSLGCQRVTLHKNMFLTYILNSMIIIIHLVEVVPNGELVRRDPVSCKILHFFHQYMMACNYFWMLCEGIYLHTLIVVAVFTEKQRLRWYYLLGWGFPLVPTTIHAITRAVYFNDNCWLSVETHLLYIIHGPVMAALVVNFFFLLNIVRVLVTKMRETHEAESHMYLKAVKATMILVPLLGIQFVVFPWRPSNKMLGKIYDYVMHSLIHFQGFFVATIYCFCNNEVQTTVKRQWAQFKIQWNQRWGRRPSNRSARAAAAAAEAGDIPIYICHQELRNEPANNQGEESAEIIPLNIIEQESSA
Description: as §2, §3

lean mice = assay: Acute food intake in lean mice after single s.c. administration; assay type: in vivo, C57BL/6j male mice; settings: mean ± SEM
Description: as §1

Exendin-4 (from UniProt P26349 48-86) (peptide)
EC50 (nM), cell-based cAMP assay, CHO-K1 cells (Human GLP-1R [1]): 0.002 nM

GIP (peptide)
EC50 (nM), cell-based cAMP assay, CHO-K1 cells [2]: 0.075 nM

CC[C@H](C)[C@H](NC(=O)[C@H](CC(C)C)NC(=O)[C@H](Cc1c[nH]c2ccccc12)NC(=O)[C@H](CCC(N)=O)NC(=O)[C@@H](NC(=O)[C@H](Cc1ccccc1)NC(=O)[C@H](C)NC(=O)[C@H](CCC(N)=O)NC(=O)[C@H](CCC(N)=O)NC(=O)[C@H](C)NC(=O)[C@@H](NC(=O)[C@H](CCCCN)NC(=O)[C@H](CC(=O)O)NC(=O)[C@H](CC(C)C)NC(=O)C(C)(C)NC(=O)[C@@H](NC(=O)[C@H](CO)NC(=O)[C@H](Cc1ccc(O)cc1)NC(=O)[C@H](CC(=O)O)NC(=O)[C@H](CO)NC(=O)[C@@H](NC(=O)[C@H](Cc1ccccc1)NC(=O)[C@@H](NC(=O)CNC(=O)[C@H](CCC(=O)O)NC(=O)C(C)(C)NC(=O)[C@@H](N)Cc1ccc(O)cc1)[C@@H](C)O)[C@@H](C)O)[C@@H](C)CC)[C@@H](C)CC)C(C)C)C(=O)N[C@@H](C)C(=O)NCC(=O)NCC(=O)N1CCC[C@H]1C(=O)N[C@@H](CO)C(=O)N[C@@H](CCCCN)C(=O)N[C@H]1CSSC[C@@H](C(=O)N[C@H](C(=O)N[C@@H](CC(C)C)C(=O)NCC(=O)N[C@@H](CCCNC(=N)N)C(=O)N[C@@H](CC(C)C)C(=O)N[C@@H](CO)C(=O)N[C@@H](CCC(N)=O)C(=O)N[C@@H](CCC(=O)O)C(=O)N[C@@H](CC(C)C)C(=O)N[C@@H](Cc2c[nH]cn2)C(=O)N[C@@H](CCCNC(=N)N)C(=O)N[C@@H](CC(C)C)C(=O)N[C@@H](CCC(N)=O)C(=O)N[C@H](C(=O)N[C@@H](Cc2ccc(O)cc2)C(=O)N2CCC[C@H]2C(=O)N[C@@H](CCCNC(=N)N)C(=O)N[C@H](C(=O)N[C@@H](CC(N)=O)C(=O)N[C@H](C(=O)NCC(=O)N[C@@H](CCCCNC(=O)COCCOCCNC(=O)COCCOCCNC(=O)CC[C@H](NC(=O)CCCCCCCCCCCCCCCCC(=O)O)C(=O)O)C(=O)N[C@@H](CC(N)=O)C(=O)N[C@H](C(=O)N[C@@H](Cc2ccc(O)cc2)C(N)=O)[C@@H](C)O)[C@@H](C)O)[C@@H](C)O)[C@@H](C)O)C(C)C)NC(=O)[C@H]([C@@H](C)O)NC(=O)[C@H](C)NC(=O)[C@H]([C@@H](C)O)NC(=O)[C@H](CC(N)=O)NC1=O [SEQ ID NO. 47, Y-Aib-E-G-T-F-T-S-D-Y-S-I-Aib-LDKIAQQAFVQWLIAGGPSKCNTATCVLGRLSQELHRLQTYPRTNTGK*-N-T-Y-NH2-acetate salt (wherein K* = Lys(AEEAc-AEEAc-γ-Glu-17-carboxyheptadecanoyl))]
Blood glucose, 120 min (4 h fasted mice; 120 min after injection): 102.2 ± 4.08 mg/dL
Blood glucose, 240 min (4 h fasted mice; 240 min after injection): 77.0 ± 3.75 mg/dL
Blood glucose, Time 0 (4 h fasted mice; Time 0 (baseline)): 174.7 ± 3.62 mg/dL
EC50 (Human GLP-1R [3]): 0.438 nM
EC50 (Human Calc/RAMP3R (AMY3)): 0.353 nM
Cumulative food intake reduction vs vehicle (lean rats; 4 H): 14.0 ± 7.72%
Cumulative food intake reduction vs vehicle (lean rats; 12 H): 40.6 ± 4.52 %
Cumulative food intake reduction vs vehicle (lean rats; 24 H): 40.8 ± 4.23 %
Cumulative food intake reduction vs vehicle (lean rats; 48 H): 30.1 ± 3.03 %
Cumulative food intake reduction vs vehicle (lean rats; 72 H): 14.3 ± 2.53 %
Food intake reduction by intervals vs vehicle (lean rats; interval 0-4 H): 14.0 ± 7.72%
Food intake reduction by intervals vs vehicle (lean rats; interval 4-12 H): 48.7 ± 5.41 %
Food intake reduction by intervals vs vehicle (lean rats; interval 12-24 H): 42.9 ± 9.15 %
Food intake reduction by intervals vs vehicle (lean rats; interval 24-48 H): 19.3 ± 2.41 %
Food intake reduction by intervals vs vehicle (lean rats; interval 48-72 H): −23.3 ± 4.52 %
EC50 (Human GIPR): 0.121 nM
Effect on fasting insulin (DIO mice; 4 h fasted, FIG. 5): reduced
Effect on fasting serum glucose (DIO mice; 4 h fasted, FIG. 5): reduced
Effect on food intake in DIO mice (DIO mice; FIG. 2): reduce
Effect on body weight in DIO mice (DIO mice; FIG. 3): reduce
Effect on fat mass, assessed by MRI (DIO mice; FIG. 4): reduction of fat mass
EC50 (Human CalcitoninR): 0.185 nM
Cumulative food intake reduction relative to vehicle (lean mice; Table 12, 10 nmol/Kg, 8 H): 64.7 ± 2.16 %
Cumulative food intake reduction relative to vehicle (lean mice; Table 12, 10 nmol/Kg, 24 H): 65.4 ± 1.53 %
Cumulative food intake reduction relative to vehicle (lean mice; Table 12, 10 nmol/Kg, 48 H): 42.3 ± 1.61 %
Cumulative food intake reduction relative to vehicle (lean mice; Table 12, 10 nmol/Kg, 72 H): 26.0 ± 2.27 %
Cumulative food intake reduction relative to vehicle (lean mice; Table 13, 10 nmol/Kg, 8 H): 62.5 ± 2.81 %
Cumulative food intake reduction relative to vehicle (lean mice; Table 13, 10 nmol/Kg, 24 H): 49.0 ± 5.24 %
Cumulative food intake reduction relative to vehicle (lean mice; Table 13, 10 nmol/Kg, 48 H): 28.0 ± 3.62 %
Cumulative food intake reduction relative to vehicle (lean mice; Table 13, 10 nmol/Kg, 72 H): 14.8 ± 2.78 %
Cumulative food intake reduction relative to vehicle (lean mice; Table 13, 30 nmol/Kg, 8 H): 83.6 ± 2.44 %
Cumulative food intake reduction relative to vehicle (lean mice; Table 13, 30 nmol/Kg, 24 H): 64.5 ± 4.61 %
Cumulative food intake reduction relative to vehicle (lean mice; Table 13, 30 nmol/Kg, 48 H): 36.7 ± 2.82 %
Cumulative food intake reduction relative to vehicle (lean mice; Table 13, 30 nmol/Kg, 72 H): 25.2 ± 2.60 %
